Results as given in PMC9168369 (Frontiers in Pharmacology, 2022).
Read-outs that look alike come from different tables or passages of the source.

Legend:
Hela cells = assay: Cell anti-proliferative activity, CCK8 assay; type: cell-based; conditions: Homo sapiens, CCK8, 48 h, 0.25 to 16.0 μM
Description: Cell anti-proliferative activity to Hela was evaluated by the CCK8 assay. The Hela cells were seeded at a density of 2,000 cells per well into a 96-well microplate in 100 μl of the growth medium. Cells were incubated at 37°C and 5% CO2 overnight. The next day, 100 μl per well of the diluted inhibitor in the growth medium was added with the final concentration from 0.25 to 16.0 μM. The cells were treated with DMSO as control. A series of dilutions were made in 0.1% DMSO in the assay medium so that the final concentration of DMSO was 0.1% in all of treatments. Cells were incubated at 37°C and 5% CO2 for 48 h. Then, 10 μl of CCK8 was added to each well. The plates were incubated at 37°C for 2 h, after that, the plates were recorded by measuring the absorbance at 450 nm with the reference wavelength of 630 nm using an EnVision Multilabel Reader (PerkinElmer). All assays were conducted with three parallel samples and three repetitions.

[1] = tested on: SHEE cells (human immortalized esophageal epithelial cell line); assay: Toxicity to SHEE, MTT assay; type: cell-based; conditions: 48 h, read-out: IC50 SHEE
Description: Toxicity to SHEE was evaluated by using the MTT assay. The SHEE cells were seeded in 96-well plates with densities of 2,200–2,500 cells/well in 100 μl. One day after seeding, the concentration of the test compounds being between 0 and 50 μM, 0.1% DMSO were added to the cells as control. Approximately 2,200–2,500 transfected cells in 100 μl were incubated in quintuplicate in 96-well plates. After 48 h, MTT was added and incubated in the plate for 1–4 h in the incubator. The absorbance at 490 nm was measured using a microplate reader (Thermo).

IDO1 = conditions: read-out: average IC50, cellular assay; ref Yue et al., 2017; Komiya and Huang, 2018; cited from earlier work
human IDO1 = molecular target: T1, human IDO1 (Homo sapiens, UniProt P14902); assay: Hela cell based IDO1 assay (kynurenine readout, IFN-γ induced); conditions: Hela cells, human IFN-γ 100 ng/ml, 18 h
T1 construct: Hela cell was selected because of its expression in native human IDO1 induced with IFNγ; endogenous in cells; host or cells: Hela cells (ATCC), induced with human IFN-γ 100 ng/ml
T1 sequence (P14902 whole entry): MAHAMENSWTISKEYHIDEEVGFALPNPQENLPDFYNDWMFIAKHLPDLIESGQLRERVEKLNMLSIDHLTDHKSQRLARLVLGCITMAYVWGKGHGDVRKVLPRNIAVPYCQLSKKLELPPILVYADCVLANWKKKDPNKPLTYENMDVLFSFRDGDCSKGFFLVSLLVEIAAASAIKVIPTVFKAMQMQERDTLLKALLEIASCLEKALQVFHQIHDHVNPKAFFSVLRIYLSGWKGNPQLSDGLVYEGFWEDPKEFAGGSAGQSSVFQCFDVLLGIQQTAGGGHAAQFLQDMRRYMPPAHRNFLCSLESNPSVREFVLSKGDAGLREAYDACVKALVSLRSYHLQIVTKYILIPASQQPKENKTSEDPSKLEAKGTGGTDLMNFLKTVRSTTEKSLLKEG
Description: To perform the Hela cell based IDO1 assay, Hela cells were seeded at 50,000 cells per well into a 96-well microplate in 100 μl of DMEM complete growth medium overnight. The next day, 100 μl of the diluted inhibitor was added into each well in the growth medium, then human IFN-γ was added with a final concentration of 100 ng/ml. Cells were incubated for 18 h. […] The plate was incubated at 50°C for 30 min to hydrolyze N-formyl kynurenine produced by IDO to kynurenine. The plate was then centrifuged at 2,500 rpm for 10 min to remove sediments. 100 μl of supernatant per well was transferred to another 96-well plate and mixed with 100 μl of 2% (w/v) 4-(dimethylamino) benzaldehyde in acetic acid. The plate was incubated at room temperature for 10 min, the yellow color derived from kynurenine was recorded by measuring the absorbance at 480 nm using a microplate reader (PerkinElmer, United States).

[2] = set-up: method as in Ma et al. (2019); conditions: ref Ma et al. (2019); cited from earlier work

IC50 (Hela cells) [µM] | melting point [°C] | IC50 (human IDO1) [µM] | Compound | further results
> 16 | 89 to 92 |  | COCCOc1cc2ncnc(Nc3cccc(-c4cn(Cc5ccccc5)nn4)c3)c2cc1OCCOC [compound b, N-(3-(1-Benzyl-1H-1,2,3-triazol-4-yl)phenyl)-6,7-bis(2-methoxyethoxy)quinazolin-4-amine] | IC50 ([1]; MTT, 0 to 50 μM): > 50 µM
> 16 |  |  | C#Cc1cccc(Nc2ncnc3cc(OCCOC)c(OCCOC)cc23)c1 [Erlotinib, reference compound] | IC50 [1]: 21 ± 2.11 µM
> 16 | 94 to 97 | 0.32 ± 0.07 | COCCOc1cc2ncnc(Nc3cccc(-c4cn(Cc5ccccc5Br)nn4)c3)c2cc1OCCOC [compound e, [6,7-Bis-(2-methoxy-ethoxy)-quinazolin-4-yl]-{3-[1-(2-bromo-benzyl)-1H-[1,2,3]triazol-4-yl]-phenyl}-amine] | 
> 16 |  |  | COCCOc1cc2ncnc(Nc3cccc(-c4cn(-c5ccccc5)nn4)c3)c2cc1OCCOC [compound a, [6,7-Bis-(2-methoxy-ethoxy)-quinazolin-4-yl]-[3-(1-phenyl-1H-[1,2,3]triazol-4-yl)-phenyl]-amine] | 
 | 93 to 96 | 0.4 ± 0.14 | COCCOc1cc2ncnc(Nc3cccc(-c4cn(Cc5ccccc5I)nn4)c3)c2cc1OCCOC [compound d, [6,7-Bis-(2-methoxy-ethoxy)-quinazolin-4-yl]-{3-[1-(2-iodo-benzyl)-1H-[1,2,3]triazol-4-yl]-phenyl}-amine] | 
> 16 | 109 to 112 | 47.1 ± 33.2 | COCCOc1cc2ncnc(Nc3cccc(-c4cn(CCc5ccccc5)nn4)c3)c2cc1OCCOC [compound c, [6,7-Bis-(2-methoxy-ethoxy)-quinazolin-4-yl]-[3-(1-phenethyl-1H-[1,2,3]triazol-4-yl)-phenyl]-amine] | 
 |  |  | O[C@H](C[C@H]1c2c(F)cccc2-c2cncn21)[C@H]1CC[C@H](O)CC1 [Navoximod] | absorption [2]: quickly absorbed; tolerability [2]: well tolerated
